The source of these data is US9808434B2, “Compound for treating cancer and diabetes” (CITY OF HOPE, priority 2011, dated 2017).

As a reminder, the IC50 is the concentration needed to halve the response being measured. A higher IC50 goes with a need for much substance.

For one assay, the system named is A2058. Kind of assay: MTT assay, A2058. The following applies: Homo sapiens, A2058, 96 h. Format: cell-based. On the procedure: Cell density measurements were performed using a hemocytometer to count reproductive cells resistant to staining with trypan blue. Approximately 20,000 cells were plated into each well of 96-well flat-bottomed micro-titer plates. After 12 h or 24 h incubation at 37° C., medium containing either COH-SR4 (ranging 0-200 μM) or elesclomol (ranging 0-20 μM) were added to the cells. After 24 h, 48 h or 96 h incubation, 20 μL of 5 mg/mL MTT were introduced to each well and incubated for 2 h. The plates were centrifuged and medium was decanted. Cells were subsequently dissolved in 100 μl DMSO with gentle shaking for 2 h at room temperature, followed by measurement of OD570 (91).
For orientation: Tetrazolium assays rely on reduction of a dye to a coloured formazan, in cell work by metabolically active cells.

Another assay relates to SK-Mel-5. Kind of assay: Colony formation assay, SK-Mel-5. Format: cell-based, human. The following applies: 5 μM. On the procedure: Cell survival was evaluated using a standard colony-forming assay. In total, 1×10^5 cells/mL were incubated with COH-SR4 (1.5 μM or 5 μM) or elesclomol (5 μM) for 24 h, and aliquots of 50 or 100 μL were added to 60 mm size petri dishes, containing 4 mL culture medium. After 7 or 10 days, adherent colonies were fixed, stained with 0.5% methylene blue for 30 min and colonies were counted using the Innotech Alpha Imager HP (91).

In the next assay the test system is GST. The assay can be described thus: GST activity towards CDNB in melanoma cell supernatants. The following applies: B16-F0, Hs600T, A2058 supernatants; 1 mM GSH and CDNB. Format: biochemical. The method, then:
GST activity towards 1-chloro 2,4-dinitro benzene (CDNB) and its inhibition by COH-SR4 was performed in 28000×g crude supernatant prepared from B16-F0, Hs600T and A2058 cells. Human liver purified GST was used as a control (inset). The inhibitory effect of COH-SR4 on GST was studied at a fixed concentration of GSH and CDNB (1 mM each) and varying concentrations of inhibitor. The enzymes were pre-incubated with the inhibitor for 5 min at 37° C. prior to the addition of the substrates. […] The ability of COH-SR4 to inhibit GST activity in melanomas represents a potential mechanism that contributes to decreased survival of melanoma cells following COH-SR4 treatment (FIG. 68A).

A further assay deals with B16-F0 melanoma. Format: in vivo. On the procedure: For melanoma studies, C57B mice (for syngeneic B16-F0 mouse melanoma model) and Hsd: Athymic nude nu/nu mice (for A2058 human melanoma mouse xenografts model), were obtained from Harlan, Indianapolis, Ind. All animal experiments were carried out in accordance with a protocol approved by the Institutional Animal Care and Use Committee (IACUC). In each model, ten 10-weeks-old mice were divided into two groups of 5 animals (treated with corn oil (vehicle), and COH-SR4 compound 4 mg/kg b.w.). All animals were injected with 2×10^6 melanoma cells suspensions in 100 μL of PBS, subcutaneously into one flank of each mouse. Treatment was started 10 days after the implantation to see palpable tumor growth. Treatment consisted of 0.1 mg of COH-SR4/mice in 200 μL corn oil by oral gavage alternate day. Control groups were treated with 200 μL corn oil by oral gavage alternate days. Animals were examined daily for signs of tumor growth. Tumors were measured in two dimensions using calipers. Photographs of animals were taken at day 1, day 10, day 14, day 18, day 20, day 30, and day 51 after subcutaneous injection, are shown for all groups. Photographs of tumors were also taken at day 20 (for syngeneic model), and at day 51 (for xenograft model).
C57B mice for syngeneic model were obtained from Harlan, Indianapolis, Ind. All animal experiments were carried out in accordance with a protocol approved by the Institutional Animal Care and Use Committee (IACUC). Ten 10-weeks-old mice were divided into two groups of 5 animals (treated with corn oil (vehicle), and COH-SR4 4 mg/kg body weight). All 10 animals were injected with 1×10^6 mouse melanoma cells (B16-F0) suspensions in 100 μL of PBS, subcutaneously into one flank of each mouse. Treatment was started 10 days after the B16 melanoma cells implantation to see palpable tumor growth. Treatment consisted of 0.1 mg of COH-SR4/mice in 200 μL corn oil by oral gavage alternate day. Control groups were treated with 200 μL corn oil by oral gavage alternate day. Animals were examined daily for signs of tumor growth, and body weights were recorded. Tumors were measured in two dimensions using calipers. Photographs of animals were taken at day 1, day 10, day 14, day 18, and day 20 after subcutaneous injection, are shown for all groups. Photographs of tumors were also taken at day 20.
C57B mice (for syngeneic B16-F0 mouse melanoma model) and Hsd: Athymic nude nu/nu mice (for A2058 human melanoma mouse xenografts model), were used for testing the impact of oral administration of COH-SR4 on melanoma progression in vivo models. In each model, ten 10-weeks-old mice were divided into two groups of 5 animals (treated with corn oil (vehicle), and COH-SR4 compound (4 mg/kg b.w.). All animals were injected with 2×10^6 melanoma cells suspensions in 100 μL of PBS, subcutaneously into one flank of each mouse. Treatment was started 10 days after the implantation of melanoma cells. Treatment consisted of 0.1 mg of COH-SR4/mice in 200 μL corn oil by oral gavage on alternate days. Control groups were treated with 200 μL corn oil by oral gavage alternate day. Animals were examined daily for signs of tumor growth and body weights were recorded. […] Animals were examined daily for signs of tumor growth. Tumors were measured in two dimensions using calipers. […] Tumors were measured in two dimensions using calipers and time-course analysis of tumor regression was performed during the study. […]

In the assay on A2058, `O=C(Nc1cc(Cl)cc(Cl)c1)Nc1cc(Cl)cc(Cl)c1` [COH-SR4, 1,3-bis(3,5-dichlorophenyl) urea] displayed a concentration for half-maximal inhibition (IC50) of 11 ± 2 µM. This molecule also registered a colony formation in the assay on SK-Mel-5 of 22±8%. Also, the “total GST activity towards CDNB” value in the assay on GST is “inhibited the total GST activity to a significant extent”. The “tumor cross-section areas compared to corn oil” value with B16-F0 melanoma (Example 16, 4 mg/kg oral gavage alternate day) is listed as “significantly smaller”. In the assay on B16-F0 melanoma (Example 16, 4 mg/kg, corn oil only died on day 20), the day of death came out at 48 days. Further, in the assay on B16-F0 melanoma (Example 16, day 20), the “tumor weights compared to corn oil” value is “significantly smaller”. In the assay with B16-F0 melanoma (Example 22, day 20, control 2.36±0.2 g), this molecule came in with a tumor weight of 1.07 ± 0.2 g. This molecule also registered a survival with B16-F0 melanoma (Example 22, vehicle censored by day 20±2) of 50 ± 5 days.
